# Source: patent US20250319053A1, “INHIBITORS OF THE PEPTIDYL-PROLYL CIS/TRANS ISOMERASE (PIN1), COMBINATIONS AND USES THEREOF” (DANA-FARBER CANCER INSTITUTE, INC., priority 2021, published 2025)
# Experiments:
# [1] = tested on: patient-derived PDAC tumors in PDTX mice; assay: Patient-derived tumor orthotopic xenograft (PDTX) mouse model; format: in vivo
# Excerpt: Allelic profiling of resulting KPC mice by the B6 panel (Jackson Laboratories) confirmed 129S1/SvImJ with average match of 84.2%, 129S4SvJae with average match of 83.8%, B6N with average match of 65.7% and B6J, with average match of 65.1%. 2) the KPC Genetically engineered mouse-derived orthotopic allografts (GDA) mouse model (Hingorani et al., Cancer Cell 7, 469-483 (2005); Li et al., Comput Struct Biotechnol J 17, 498-506 (2019)). Mouse PDAC cells were established from KPC mouse pancreatic tumor tissues, followed by orthotopically injecting 1×10^6 mouse PDAC cells in 50 μL Matrigel (356231, Coaning) into the pancreas of female 8 week-old syngeneic immunocompetent C57BL/6 mice (Jackson Laboratories). 3) PDAC Patient-derived Tumor orthotopic xenografted (PDTX) mouse model (Gilles et al., Clin Cancer Res 24, 1734-1747 (2018); Rubio-Viqueira et al., Clin Cancer Res 12, 4652-4661 (2006)). PDAC PDX tumors were obtained from Dr. Muthuswamy and Dr. Hidalgo and divided into 4×2 mm pieces, followed by xenografting orthotopically into the pancreas of female 8-week-old immunodeficient NOD.Cg-Prkdc^scid Il12rg^tm1Wjl/SzJ (NOD scid gamma; NSG) mice (Jackson Laboratories). 4) PDAC Patient-derived Organoid and CAFs orthotopic xenograft (PDOX) mouse model (Dantes et al., JCI Insight 5, 137809 (2020); (Koikawa et al., Cancer letters 425, 65-77 (2018)). 5×10^4 patient derived PDAC organoids and 5×10^4 patient derived CAFs in 50 μL of Matrigel were injected orthotopically into the pancreas of female 8 week-old immunodeficient NSG mice (Jackson Laboratories).
# Briefly, all mice were randomly selected to receive treatments groups. Tumor sizes were measured by weekly palpation with electronic caliper or ultrasound, and when tumors were reached >0.5 cm, the treatment was started. Briefly, animals were placed under general anesthesia with 2%-3% isoflurane once a week. Under general anesthesia, the abdominal wall became very flaccid, and the muscle tone of the mouse was very low. The mouse was scuffed with the left hand to allow for palpation and measurement with the right hand. This allowed to detect the firm pancreatic mass by palpation, and to determine its size by electronic caliper measurements. […] In the GDA model and PDX models, palpable tumors predictably were detectable within 4-7 days post implantation. […] When the tumor by palpation after age 12 weeks could not be detected, the mice were monitored by ultrasound. Once the maximum length >0.5 cm tumor was detected, the mice were randomized to treatment, and then followed tumor growth by electronic caliper measurement. To validate the external caliper measurements, the tumor size was measured prior to euthanization of the mice and then measured the actual tumor size upon necropsy to ascertain concordance. […]
# [2] = tested on: human PDAC cells (PDAC1 and PDAC2); assay: Cell proliferation assay (CellTiter-Glo) in PDAC cells; format: cell-based; details: 72 hrs
# Description: (§1) Cells were seeded at a density of 5000 cells (PDAC1 and PDAC2), or 3000 cells (CAF1 and CAF2) per well in 96-well flat-bottomed plates and incubated for 24 h in culture medium. […] Control cells received dimethyl sulfoxide (DMSO) at a concentration equal to that of drug-treated cells for 72 hours. The cell viability was determined by CellTiter-Glo® 2.0 Assay (Promega) following the manufacturer's instructions.
# splenocytes = assay: Immune profiling of splenocytes by flow cytometry; format: in vivo, mouse; details: 40 mg/kg i.p. daily for 5 weeks
# Description: After filtered, cell lysate was collected. To assess cell surface expressions, cells were harvested by non-enzymatic cell dissociation solution, and resuspend in blocking solution (Cell Staining Buffer, BioLegend). Cells were incubated with following antibodies; […] For FOXP3 staining, cells were fixed and permeabilized using Foxp3/Transcription Factor Staining Buffer Set (00-5523, eBioscience), and incubated with FOXP3-FITC (11-5773-82, Invitrogen) for 30 mins at RT. For Granzyme B staining, cells were fixed and permeabilized using Intracellular Fixation & Permeabilization Kit (88-8824-00, eBioscience), and incubated with Granzyme B-FITC (515403, BioLegend) for 30 mins at RT. All antibodies were diluted according to manufacture instruction. Cells were analyzed using CytoFLEX flow cytometer and CytExpert software (Beckman Coulter, IN, USA). Table 2 is a table of immune profiling of splenocytes from Pin1i−2 treated non-tumor-bearing B6 mice. See also FIG. 1A-FIG. 1G, FIG. 8A-FIG. 8O, and FIG. 9A-9L. WT B6 mice (non-tumor-bearing mice) were treated with vehicle or Pin1i−2 (40 mg/kg, i.p., daily) for 5 weeks, followed by examining the immune profile of splenocytes using flow cytometry (n=5).
# [3] = tested on: primary human CAFs (CAF1 and CAF2); assay: Cell proliferation assay (CellTiter-Glo) in CAFs; format: cell-based; details: 72 hrs
# Description: as §1
smiles,measurement,setting,value
"Nc1ccn([C@@H]2O[C@H](CO)[C@@H](O)C2(F)F)c(=O)n1 [GEM, gemcitabine, reference compound]",Median survival,"[1]; PDTX mice, FIG. 8M, GEM 20 mg/kg, n=6, vehicle 36 days",42.5 days
"CC(C)(C)CN(C(=O)CCl)C1CCS(=O)(=O)C1 (stereo not shown) [Pin1i−2, sulfopin]",cell growth (proliferation assay),[2]; PDAC cells,dose-dependently suppress cell growth
same,Pin1 KO cell growth,[2]; Pin1-KO PDAC2 cells,fails to suppress Pin1 KO cell growth
same,CD3−CD11b+ Myeloid cells,splenocytes; n=5,6.79 % of CD45+ cell
same,CD8a+ T-cell,splenocytes; n=5,14.30 % of CD45+ cell
same,CD11b+Ly6G+ Myeloid Cells,splenocytes; n=5,1.71 % of CD45+ cell
same,CD11c+MHC-II+ DCs,splenocytes; n=5,1.48 % of CD45+ cell
same,CD45+CD3+ Cells,splenocytes; n=5,27.77 % of CD45+ cell
same,F4/80+ Macrophages,splenocytes; n=5,3.54 % of CD45+ cell
same,CTLA4,splenocytes; listed under CD8a+ T-cell,76.08 MFI
same,Lag3,splenocytes; listed under CD8a+ T-cell,449.84 MFI
same,MHC-ClassI,splenocytes; listed under CD8a+ T-cell,11456.80 MFI
same,PD-1,splenocytes; listed under CD8a+ T-cell,67.90 MFI
same,PD-L1,splenocytes; listed under CD11b+Ly6G+ Myeloid Cells,12447.46 MFI
same,PD-L1,splenocytes; listed under CD11c+MHC-II+ DCs,89012.88 MFI
same,CAF proliferation (cell growth),[3],suppression of CAF proliferation
same,CAF activation (IF for αSMA or PDGFRα),"[1]; PDTX mice, 4 weeks",significantly reduced
same,collagen deposition (Sirius Red staining),"[1]; PDTX mice, 4 weeks",significantly reduced
same,tumor growth,"[1]; overt tumor-bearing PDTX mice, 4 weeks",significantly reduced tumor growth
